Measured values: patent US9867795B2, “Nitrated lipids and methods of making and using thereof” (The UAB Research Foundation, priority 2004, dated 2018)
Values joined by “and” are separate entries in the source; they are usually repeats but may differ in a detail not shown here. Equal values may be shown once. “Also recorded” adds a separate entry of the source.

Tests used:
3T3-L1 adipocytes = test: [^3H]-2-Deoxy-D-glucose uptake assay in differentiated 3T3-L1 adipocytes; assay type: cell-based; conditions: test compounds for 2 days; LNO2 1-10 μM
Procedure: [^3H]-2-Deoxy-D-glucose Uptake Assay in Differentiated 3T3-L1 Adipocyte. [^3H]-2-Deoxy-D-glucose uptake assay as previously described (19) 3T3-L1 preadipocytes were grown in 24-well tissue culture plates, 2-day postconfluent preadipocytes were treated by 10 μg/ml insulin (Sigma), 1 μM dexamethasone (Sigma), and 0.5 mM 3-isobutyl-1-methylxanthine (Sigma) in DMEM containing 10% FBS for two days, then cells were kept in 10 μg/ml insulin also in DMEM containing 10% FBS for 6 days (changed medium every three days). Eight days after induction of adipogenesis, test compounds in DMEM containing 10% FBS were added for an additional 2 days (changed medium every day) and PPARγ-specific antagonist GW9662 were pretreated 1 h before other additions. After two rinses with serum-free DMEM, cells were incubated for 3 h in serum-free DMEM and rinsed at room temperature three times with freshly prepared KRPH buffer (5 mM phosphate buffer, 20 mM HEPES, 1 mM MgSO4, 1 mM CaCl2, 136 mM NaCl, 4.7 mM KCl, pH 7.4). The buffer was replaced with 1 μCi/ml of [^3H]-2-deoxy-D-glucose in KRPH buffer for 10 min at room temperature. The treated cells were rinsed carefully three times with cold PBS, lysed overnight in 0.8N NaOH (0.4 ml/well), and neutralized with […] of 12N HCl. Lysate (360 μl) was added to 4 ml Scinti-Safe Plus TM 50% in a scintillation vial, and the vials were mixed and counted.
[^3H]-2-Deoxy-D-glucose uptake assay in differentiated 3T3-L1 adipocytes. [^3H]-2-deoxy-D-glucose uptake was analyzed as previously (23). […] Cells were then rinsed three times with cold PBS, lysed overnight in 0.8 N NaOH (0.4 ml/well), neutralized with 26.6 μl of 12 N HCl and 360 μl of lysate was added into 4 ml Scinti-Safe Plus™ 50% for radioactivity determination by liquid scintillation counting.

[1] = LNO2 and OA-NO2 decay in phosphate buffer; assay type: physicochemical; conditions: 3 μM, 100 mM phosphate buffer, pH 7.4, 37° C.
Procedure: LNO2 and OA-NO2 decay. […] During the two hour incubation, aliquots were removed and analyzed for LNO2 and OA-NO2 content. […] Non-decayed LNO2 and OA-NO2 were quantitated via HPLC ESI-MS/MS as described above.

3T3-L1 preadipocytes = conditions: for 3T3-L1 preadipocyte differentiation induced: two weeks, oil red O, LNO2 3 μM, OA-NO2 1 μM
[2] = Storage stability in CH3OH under argon at −80° C.; assay type: physicochemical; conditions: in CH3OH/methanol under argon at −80° C.
Procedure: LNO2 synthesis. Linoleic acid/HgCl2/phenylselenium bromide/NaNO2 (1:1.3:1:1, mol/mol) were combined in THF/acetonitrile (1:1, v/v) with a final concentration of 0.15 M linoleic acid. Care was taken to use anhydrous solvents, dry glassware and reagents that had been dried in vacuo over phosphorus pentoxide. The reaction mixture was stirred (4 h, 25° C.) followed by centrifugation to sediment the precipitate. The supernatant was recovered, the solvent evaporated in vacuo, the product mixture redissolved in THF (original volume) and the temperature reduced to 0° C. A 10-fold molar excess of H2O2 was slowly added with stirring to the mixture then allowed to rest in an ice bath for 20 min followed by a gradual warming to room temp (45 min). The product mixture was extracted with equal parts saturated NaCl and diethyl ether, the organic phase collected, the solvent removed in vacuo and the lipid products were resolvated in CH2Cl2/CH3OH (4:1, v/v). […] Under these conditions, purified nitrated linoleic acid is stable for >3 months. Large scale purification of the individual positional isomers was performed by preparative HPLC using a 250×21.2 mm C18 Phenomenex Luna column (5 μm particle size). […]

[3] = pH dependency of •NO formation from LNO2 (EPR, cPTIO reduction); conditions: 80 μM LNO2, buffers with different pHs
Procedure: Electron paramagnetic resonance—EPR measurements were performed at room temperature using a Bruker Elexsys E-500 spectrometer equipped with an ER049X microwave bridge and an AquaX liquid sample cell. The following instrument setting were used: modulation frequency, 100 kHz; modulation amplitude, 0.05 G; receiver gain, 60 dB; time constant, 1.28 ms; sweep time, 5.24 s; center field, 3510 G; sweep width, 100 G; power, 20 mW; scan parameter, 16 scans.
Due to limitations of the •NO-cPTIO reaction for quantitating yields of NO, oxymyoglobin was utilized to measure •NO release rates (24).

Row | Substance | [^3H]-2-deoxy-D-glucose uptake (3T3-L1 adipocytes) | share degraded after 2 hr [1] [%] | expression of adipocyte markers (PPARγ2 and aP2) (3T3-L1 preadipocytes; immunoblot of cell lysate) | 3T3-L1 preadipocyte differentiation induced (3T3-L1 preadipocytes) | time stable on storage [2] [months] | pH of maximal •NO release [3] | decay after 2 hr [1]
1 | 10-nitro-9,12-octadecadienoic acid and 12-nitro-9,12-octadecadienoic acid [LNO2] | dose-dependent increase in glucose uptake; also recorded: greater than that observed for equimolar 15-deoxy-PGJ2, equivalent to Rosiglitazone; also recorded: paralleled | ~80 | resulted in expression of specific adipocyte markers | > 30% and ~30% | > 3 | 7.4 | 
2 | 9- and 10-nitro-9-cis-octadecenoic acid [OA-NO2] | induced an increase; also recorded: induced significant increases in glucose uptake | 25 |  | ~60% | > 3 |  | only minimal decay
